By IC50 is commonly meant the concentration that inhibits the measured activity by half. Low readings indicate inhibition by little substance, high ones a need for much substance.

What all share (type): functional, cell-based
The subject of one experiment is HepG2. The experiment can be described thus: Cytotoxicity against human HepG2 cells.
Another experiment relates to K562. The experiment can be described thus: Cytotoxicity against human K562 cells.
The subject of the next experiment is A549. The experiment can be described thus: Cytotoxicity against human A549 cells.

For the molecule `C=C1[C@@H]2C[C@H](O)[C@H]3[C@@]4(C)[C@H](C[C@H](OC(C)=O)[C@]3(C2)[C@@H]1O)C(C)(C)[C@@H](OC(C)=O)C[C@@H]4O` [ADENANTHIN E], the IC50 in the experiment with HepG2, with K562 and with A549 was > 100 µM throughout.
For the molecule `C=C1[C@@H]2C[C@H](OC(C)=O)[C@H]3[C@]4(C)[C@@H](OC(C)=O)C[C@H](O)C(C)(C)[C@H]4C(=O)[C@H](OC(C)=O)[C@]3(C2)[C@@H]1O` [ADENANTHIN J], the IC50 in the experiment with HepG2, in the experiment with K562 and in the experiment on A549 was > 100 µM throughout.
Take `C=C1[C@@H]2C[C@H](OC(C)=O)[C@H]3[C@]4(C)[C@@H](OC(C)=O)C[C@H](O)C(C)(C)[C@H]4C(=O)[C@H](O)[C@]3(C2)[C@@H]1OC(C)=O` [ADENANTHIN K]: the IC50 with HepG2, in the experiment with K562 and in the experiment with A549 was > 100 µM each time.
As to `C=C1C(=O)[C@]23C[C@H]1C[C@H](OC(C)=O)[C@H]2[C@]1(C)[C@@H](OC(C)=O)C[C@H](O)C(C)(C)[C@H]1C(=O)[C@@H]3OC(C)=O` [ADENANTHIN], the values for the IC50 with HepG2, with K562 and in the experiment with A549 were 0.32 µM, 1.05 µM and 8.07 µM, respectively.
For `C=C1C(=O)[C@]23C[C@H]1C[C@H](OC(C)=O)[C@H]2[C@]1(C)[C@@H](OC(C)=O)C[C@H](O)C(C)(C)[C@H]1[C@@H](OC(C)=O)[C@@H]3OC(C)=O` [CALCICOLIN A], in that order: 0.51 µM, 2.39 µM and 12.2 µM.
For `C=C1C(=O)[C@]23C[C@H]1C[C@H](OC(C)=O)[C@H]2[C@@]1(C)[C@H](C(=O)[C@@H]3OC(C)=O)C(C)(C)[C@@H](O)C[C@@H]1O` [CALCICOLIN B], in that order: 0.52 µM, 1.55 µM and 8.5 µM.
On to `C=C1[C@@H]2C[C@H](O)[C@H]3[C@@]4(C)[C@H]([C@@H](O)[C@H](OC(C)=O)[C@]3(C2)[C@@H]1O)C(C)(C)[C@@H](OC(C)=O)C[C@@H]4O` [FORRESTIN B], for which the concentration for half-maximal inhibition (IC50) with HepG2, in the experiment with K562 and in the experiment with A549 was > 100 µM each time.
As for `C=C1[C@@H]2C[C@H](OC(C)=O)[C@H]3[C@]4(C)[C@@H](OC(C)=O)C[C@H](O)C(C)(C)[C@H]4[C@H](O)[C@H](OC(C)=O)[C@]3(C2)[C@@H]1O` [FORRESTIN C], the 50% inhibitory concentration (IC50) in the experiment with HepG2, in the experiment with K562 and in the experiment with A549 was > 100 µM in each case.
Regarding `C=C1[C@@H]2C[C@H](OC(C)=O)[C@H]3[C@]4(C)[C@@H](OC(C)=O)C[C@H](O)[C@]5(C)C[C@@](O)([C@H]54)[C@H](OC(C)=O)[C@]3(C2)[C@@H]1OC(C)=O` [NERVONIN A], the half-maximal inhibitory concentration (IC50) in the experiment on HepG2, with K562 and in the experiment with A549 was > 100 µM throughout.
For `C=C1C(=O)[C@]23C[C@H]1C[C@H](OC(C)=O)[C@H]2[C@@]1(C)[C@H]([C@@H](OC(C)=O)[C@@H]3OC(C)=O)C(C)(C)[C@@H](O)C[C@@H]1O` [NERVONIN B], the IC50 was 1.16 µM in the experiment with HepG2, 1.18 µM in the experiment on K562 and 1.53 µM with A549.
Take `C=C1[C@@H]2C[C@H](OC(C)=O)[C@H]3[C@@]4(C)[C@H](C(=O)[C@H](OC(C)=O)[C@]3(C2)[C@@H]1OC(C)=O)C(C)(C)[C@@H](O)C[C@@H]4O` [NERVONIN C]: the 50% inhibitory concentration (IC50) with HepG2, in the experiment with K562 and with A549 was > 100 µM throughout.
In the case of `C=C1[C@@H]2C[C@H](OC(C)=O)[C@H]3[C@]4(C)[C@@H](OC(C)=O)C[C@H](O)C(C)(C)[C@H]4[C@@H](O)[C@H](OC(C)=O)[C@]3(C2)[C@@H]1OC(C)=O` [NERVONIN D], the concentration for half-maximal inhibition (IC50) in the experiment with HepG2, in the experiment on K562 and in the experiment with A549 was > 100 µM in each case.
Turning to `C=C1[C@@H]2C[C@H](OC(C)=O)[C@H]3[C@]4(C)[C@@H](OC(C)=O)C[C@H](O)C(C)(C)[C@H]4C(=O)[C@H](O)[C@]3(C2)[C@@H]1O` [NERVONIN E], the IC50 in the experiment with HepG2, with K562 and in the experiment with A549 was > 100 µM in each case.
For the molecule `C=C1[C@@H]2C[C@H](O)[C@H]3[C@]4(C)[C@@H](OC(C)=O)C[C@H](O)C(C)(C)[C@H]4[C@@H](O)[C@H](OC(C)=O)[C@]3(C2)[C@@H]1O` [NERVONIN F], the IC50 in the experiment on HepG2, in the experiment on K562 and with A549 was > 100 µM in each case.
For the molecule `C=C1[C@@H]2C[C@H](O)[C@H]3[C@]4(C)[C@@H](OC(C)=O)C[C@H](O)C(C)(C)[C@H]4[C@@H](OC(C)=O)[C@H](OC(C)=O)[C@]3(C2)[C@@H]1O` [NERVONIN G], the concentration for half-maximal inhibition (IC50) in the experiment with HepG2, in the experiment with K562 and in the experiment with A549 was > 100 µM throughout.
Consider `C=C1[C@@H]2C[C@H](OC(C)=O)[C@H]3[C@@]4(C)[C@H](C[C@H](OC(C)=O)[C@]3(C2)[C@@H]1O)C(C)(C)[C@@H](O)C[C@@H]4O` [NERVONIN H], for which the IC50 in the experiment with HepG2, in the experiment on K562 and in the experiment with A549 was > 100 µM each time.
For `C=C1[C@@H]2C[C@H](OC(C)=O)[C@H]3[C@@]4(C)[C@H]([C@@H](O)[C@H](OC(C)=O)[C@]3(C2)[C@@H]1O)C(C)(C)[C@@H](O)C[C@@H]4O` [NERVONIN I], the concentration for half-maximal inhibition (IC50) with HepG2, in the experiment on K562 and with A549 was > 100 µM in each case.
Turning to `C=C1[C@@H]2C[C@H](O)[C@@H]3[C@@](CC(=O)[C@@H]4C(C)(C)[C@@H](O)C[C@H](O)[C@]43C)(C2)[C@@H]1OC(C)=O` [NERVONIN J], the IC50 with HepG2, with K562 and with A549 was > 100 µM throughout.
For the molecule `C=C1[C@@H]2C[C@H](OC(C)=O)[C@H]3[C@]4(C)[C@@H](OC(C)=O)C[C@H](O)C(C)(C)[C@H]4C(=O)[C@H](OC(C)=O)[C@]3(C2)[C@@H]1OC(C)=O` [NERVOSANIN], the half-inhibitory concentration (IC50) with HepG2, with K562 and in the experiment with A549 was > 100 µM each time.
With `C=C1C(=O)[C@]23C[C@H]1C[C@H](OC(C)=O)[C@H]2[C@]1(C)[C@@H](OC(C)=O)C[C@H](O)C(C)(C)[C@H]1[C@@H](O)[C@@H]3OC(C)=O` [WEISIENSIN A], the concentration for half-maximal inhibition (IC50) in the experiment with HepG2 came out at 1.43 µM; with K562, 4.11 µM; in the experiment on A549 it was 1.88 µM.
